From paper PMC3014912 (Journal of molecular modeling, 2010)
pIC50: −log10 of the molar value.

Target: T1, human carboxylesterase 1 (hCE1) (Homo sapiens, UniProt P23141)
T1 sequence (P23141 18-567): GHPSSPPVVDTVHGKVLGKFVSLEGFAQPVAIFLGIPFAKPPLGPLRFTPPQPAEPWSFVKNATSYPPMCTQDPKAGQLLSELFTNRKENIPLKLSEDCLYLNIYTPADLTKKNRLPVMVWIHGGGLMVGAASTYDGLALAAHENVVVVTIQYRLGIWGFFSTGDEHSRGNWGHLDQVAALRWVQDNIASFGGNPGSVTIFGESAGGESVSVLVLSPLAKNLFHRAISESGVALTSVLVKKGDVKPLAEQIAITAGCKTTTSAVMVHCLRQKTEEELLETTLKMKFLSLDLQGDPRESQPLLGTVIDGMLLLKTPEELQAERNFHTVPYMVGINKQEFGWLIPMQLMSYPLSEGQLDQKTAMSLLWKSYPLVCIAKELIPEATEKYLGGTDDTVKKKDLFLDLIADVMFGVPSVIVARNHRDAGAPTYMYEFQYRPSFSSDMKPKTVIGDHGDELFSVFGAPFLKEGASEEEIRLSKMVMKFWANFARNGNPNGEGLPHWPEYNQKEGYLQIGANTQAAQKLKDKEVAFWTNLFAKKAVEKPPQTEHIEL
Assay: hCE1 inhibition, p-nitrophenyl acetate hydrolysis
Assay type: biochemical

| Compound | pIC50 |
| --- | --- |
| CCCCCCCCCCC(C)=O [Compound 9, 2-dodecanone, reference compound] | < 3.00 |
| CCCCCCCCOCC(=O)C(F)(F)F [Compound 4, 1,1,1-trifluoro-3-octyloxypropan-2-one] | 7.70 |
